Data reported in patent publication US8901313B2, “6,5-heterocyclic propargylic alcohol compounds and uses therefor” (Genentech, Inc., priority 2011, dated 2014).

Assays:
[1] = target: T1, nuclear factor-kappa B (NF-kB)-inducing kinase (NIK) (Homo sapiens, UniProt Q99558); assay: NIK Enzyme Inhibition Assay (Transcreener ADP assay); format: biochemical; conditions: purified NIK 0.2-1 nM, 10 uM ATP, fluorescence polarization, Morrison's quadratic equation; read-out: inhibitory value (Ki) for NIK
T1 construct: made in house; host or cells: baculovirus-infected insect cells
T1 sequence (Q99558 whole entry): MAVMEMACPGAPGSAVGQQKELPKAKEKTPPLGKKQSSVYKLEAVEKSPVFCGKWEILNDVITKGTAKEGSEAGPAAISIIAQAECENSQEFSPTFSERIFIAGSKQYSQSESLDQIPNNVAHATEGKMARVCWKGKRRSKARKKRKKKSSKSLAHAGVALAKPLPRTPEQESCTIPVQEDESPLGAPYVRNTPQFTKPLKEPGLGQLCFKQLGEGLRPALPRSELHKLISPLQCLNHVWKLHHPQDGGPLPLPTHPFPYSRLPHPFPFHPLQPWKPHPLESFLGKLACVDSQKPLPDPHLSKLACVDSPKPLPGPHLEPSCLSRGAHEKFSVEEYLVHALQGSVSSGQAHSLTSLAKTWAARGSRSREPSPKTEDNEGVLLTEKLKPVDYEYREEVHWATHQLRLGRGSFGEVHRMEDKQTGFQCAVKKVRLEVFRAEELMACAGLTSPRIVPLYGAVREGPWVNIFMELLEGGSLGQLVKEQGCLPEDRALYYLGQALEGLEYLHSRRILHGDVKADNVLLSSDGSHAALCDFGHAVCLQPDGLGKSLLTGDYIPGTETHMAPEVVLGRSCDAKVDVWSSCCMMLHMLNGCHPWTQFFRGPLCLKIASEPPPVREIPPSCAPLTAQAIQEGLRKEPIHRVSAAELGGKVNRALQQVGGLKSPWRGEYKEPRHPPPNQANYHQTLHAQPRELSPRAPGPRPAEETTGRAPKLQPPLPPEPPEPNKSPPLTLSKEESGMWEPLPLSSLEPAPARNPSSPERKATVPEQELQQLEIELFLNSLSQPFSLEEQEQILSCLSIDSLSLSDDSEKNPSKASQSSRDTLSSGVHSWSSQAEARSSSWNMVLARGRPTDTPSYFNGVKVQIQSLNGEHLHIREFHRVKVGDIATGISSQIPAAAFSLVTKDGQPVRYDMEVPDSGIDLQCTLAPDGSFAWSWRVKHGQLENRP

[2] = system: NF-kB signaling through NIK in human embryonic kidney 293 cells; assay: 293-NIK NF-kB-Luciferase reporter assay; format: cell-based; conditions: HEK293, 293 cells with tetracycline-inducible NIK, 1 ug/mL doxycycline, 24 hours, read-out: inhibitory value (IC50) for 293-NIK NF-kB-Luciferase activity
Description: (1) The first assay was used to profile whether a test compound can inhibit the NF-kB signally through NIK inhibition without affecting cell viability. In this assay, human embryonic kidney 293 cells was stably transfected with a tetracycline-inducible NIK DNA construct containing a cytomegalovirus promoter plus two reporter DNA constructs. One reporter encoded firefly luciferase under the control of three repeats of an NF-kB response element from the ELAM-1 gene and reflects the level of NIK activity in the cells, whereas the other reporter constitutively expressed Renilla luciferase under the control of the herpes simplex virus thymidine kinase promoter and served as a general measure of cell viability. Cells were incubated with different concentrations of compounds (0.2% DMSO final) in medium containing 1 ug/mL doxycycline and 10% tet-system approved fetal bovine serum (Clontech) for 24 hours, after which the reporters' signals were detected using the Dual Glo luciferase detection system (Promega) according to the vendor's protocol. The compounds listed in Table 1 have the corresponding inhibitory value (IC50 in micromolar) for 293-NIK NF-kB-Luciferase activity (values for compounds are presented in the same order as found in Table 1): na, 0.059, na, na, na, 0.105, 0.027, na, 20, 1.2, na, 1.8, 0.0231, 0.879, 0.0361, 0.582, na, 0.142, na, 0.403, 0.059, 0.0331, na, na, 0.0573, 1.5, na, na, 0.0722, na, na, 0.589, 12.7, 3.7, 14.9, na, 0.707, 1, 0.0311, 0.332, 0.309, 0.0142, 0.051, 2.8, 0.129, na, na, 1.5, na, na, na, 1.3, 0.062, 20, 0.31, 0.104, 0.091, 0.037, 0.085, 0.279, na, 0.305, 0.064, 0.332, 0.133, 0.168, 0.217, 0.553, na and na.

[3] = system: REL-A (p65) nuclear translocation in HeLa cells; assay: NIK RelA Translocation Assay (classical NF-kB signaling); format: cell-based; conditions: Homo sapiens; HeLa cells, compounds 4.5 hours, 10 ng/mL TNF-α 30 minutes; read-out: inhibitory value (IC50) for NIK RelA Translocation Assay
Protocol: (§1) (2) A second set of cell assay was used to define the selectivity of NIK inhibitors toward inhibition of classical vs. non-classical NF-kB signaling and rely on quantification of the nuclear translocation of p52 (NF-kB2) and REL-A (p65) using high content cellular imaging. For the p52 (non-classical NF-kB signaling) nuclear translocation assay, HeLa cells were treated with different concentrations of compounds (0.2% DMSO final) in medium containing 10% fetal bovine serum and then stimulated with 100 ng/mL of an anti-lymphotoxin beta receptor antibody (R&D Systems) for 5 hours. In the REL-A nuclear translocation assay, HeLa cells were incubated with compounds (0.2% DMSO final) for 4.5 hours in medium containing 10% fetal bovine serum before stimulating them with 10 ng/mL tumor necrosis factor (TNF)-α (R&D Systems) for 30 minutes. Cells were fixed with 4% paraformaldehyde, permeabilized by adding 0.1% Triton X-100 in phosphate buffered saline, and then incubated with either 2 ug/mL anti-p52 antibody (Millipore) or 400 ng/mL anti-REL-A (p65) antibody (Santa Cruz Biotechnology). Finally, the cells were incubated with an Alexa488-labeled secondary antibody (Invitrogen) and DRAQ5 DNA stain (Biostatus). Imaging was carried out using an Opera reader (Perkin Elmer) and data are analyzed with the aid of Acapella software (Perkin Elmer). The p52 or REL-A translocation into the nucleus was quantified by the ratio of the nuclear to cytoplasmic signal intensity. The concentration of inhibitor required for 50% inhibition (IC50 values) in these cell assays were derived from the plots of signal vs. inhibitor concentration. The compounds in listed in Table 1 have the corresponding inhibitory value (IC50 in micromolar) for NIK p52 Translocation Assay (values for compounds are presented in the same order as found in Table 1, and “na” means the data for this assay is to be determined): 0.326, 0.33, na, na, na, 0.218, 0.07, na, na, na, 0.129, 7.6, 0.077, 3.4, na, 0.518, na, 0.059, 0.514, 0.127, na, na, 0.010, na, na, 0.313, 0.275, na, 0.0727, na, na, na, na, na, na, 0.194, na, 6.4, 0.22, 0.346, na, na, na and na, na, na, na, na, na, 0.447, na, 0.089, 0.479, 0.489, 0.243, 0.747, 1, na, 1.9, 0.552, 2.1, na. na, na, na, na and na.
The compounds in listed in Table 1 has the corresponding inhibitory value (IC50 in micromolar) for NIK RelA Translocation Assay (values for compounds are presented in the same order as found in Table 1): 0.326, 0.33, na, na, na, 0.218, 0.07, na, na, na, na, na, 0.129, 7.6, 0.077, 3.4, na, 0.518, na, 0.059, 0.514, 0.127, na, na, 0.010, na, na, 0.313, 0.275, na, na, 0.0727, na, na, na, na, na, na, 0.194, na, 6.4, 0.22, 0.346, na, na, na, na, na, na, na, na, na, 0.447, na, 0.089, 0.479, 0.489, 0.243, 0.747, 1, na, 1.9, 0.552, 2.1, na, na, na, na, na and na.

[4] = system: p52 (NF-kB2) nuclear translocation in HeLa cells; assay: NIK p52 Translocation Assay (non-classical NF-kB signaling); format: cell-based; conditions: Homo sapiens; HeLa cells, 100 ng/mL anti-lymphotoxin beta receptor antibody, 5 hours; read-out: inhibitory value (IC50) for NIK p52 Translocation Assay
Protocol: as §1

SMILES	Ki [1]	IC50 [3]	IC50 [2]	IC50 [4]
CC(O)(C#Cc1ccc2nc(C3CC3)n(-c3ccnc(N)n3)c2c1)c1nccs1 (stereo not drawn) [Example T1-14, 4-(1-(2-aminopyrimidin-4-yl)-2-cyclopropyl-1H-benzo[d]imidazol-6-yl)-2-(thiazol-2-yl) but-3-yn-2-ol]	6.9 nM	7600 nM	879 nM	3400 nM
CC(O)(C#Cc1ccc2cnn(-c3ccnc(N)n3)c2c1)c1ncco1 (stereo not drawn) [Example T1-15, 4-(1-(2-aminopyrimidin-4-yl)-1H-indazol-6-yl)-2-(oxazol-2-yl)but-3-yn-2-ol]	0.32 nM	77 nM	36.1 nM	–
CC1(C(=O)Nc2cnc(N)nc2-n2ncc3ccc(C#CC(C)(O)c4nccs4)cc32)COC1 (stereo not drawn) [Example T1-16, N-(2-amino-4-(6-(3-hydroxy-3-(thiazol-2-yl)but-1-ynyl)-1H-indazol-1-yl)pyrimidin-5-yl)-3-methyloxetane-3-carboxamide]	27 nM	3400 nM	582 nM	518 nM
CC(O)(C#Cc1ccc2c(CN3CCOCC3)nn(-c3ccnc(N)n3)c2c1)c1nccs1 (stereo not drawn) [Example T1-18, 4-(1-(2-aminopyrimidin-4-yl)-3-(morpholinomethyl)-1H-indazol-6-yl)-2-(thiazol-2-yl) but-3-yn-2-ol]	1.7 nM	518 nM	142 nM	59 nM
CC(C)(O)C#Cc1ccc2[nH]c(=O)n(-c3ccnc(N)n3)c2c1 [Example T1-20, 1-(2-aminopyrimidin-4-yl)-6-(3-hydroxy-3-methylbut-1-ynyl)-1H-benzo[d]imidazol-2(3H)-one]	49 nM	59 nM	403 nM	127 nM
CC(O)(C#Cc1ccc2[nH]c(=O)n(-c3ccnc(N)n3)c2c1)c1nccs1 (stereo not drawn) [Example T1-21, 1-(2-aminopyrimidin-4-yl)-6-(3-hydroxy-3-(thiazol-2-yl)but-1-ynyl)-1H-benzo[d] imidazol-2(3H)-one]	0.3 nM	514 nM	59 nM	–
CN(C)Cc1nn(-c2ccnc(N)n2)c2cc(C#CC(C)(C)O)ccc12 [Example T1-25, 4-(1-(2-aminopyrimidin-4-yl)-3-((dimethylamino)methyl)-1H-indazol-6-yl)-2-methylbut-3-yn-2-ol]	12 nM	10 nM	57.3 nM	–
CN(C)C(=O)c1nn(-c2ccnc(N)n2)c2cc(C#CC(C)(O)c3nccs3)ccc12 (stereo not drawn) [Example T1-29, 1-(2-aminopyrimidin-4-yl)-6-(3-hydroxy-3-(thiazol-2-yl)but-1-ynyl)-N,N-dimethyl-1H-indazole-3-carboxamide]	0.9 nM	275 nM	72.2 nM	72.7 nM
CCOc1nc2ccc(C#CC(C)(C)O)cc2n1-c1ccnc(N)n1 [Example T1-38, 4-(1-(2-aminopyrimidin-4-yl)-2-ethoxy-1H-benzo[d]imidazol-6-yl)-2-methylbut-3-yn-2-ol]	16 nM	–	1000 nM	6400 nM
CN(C)C(=O)c1nn(-c2ccnc(N)n2)c2cc(C#CC(C)(O)c3ncco3)ccc12 (stereo not drawn) [Example T1-43, 1-(2-aminopyrimidin-4-yl)-6-(3-hydroxy-3-(oxazol-2-yl)but-1-ynyl)-N,N-dimethyl-1H-indazole-3-carboxamide]	0.2 nM	346 nM	51 nM	–

Second part, led by results:

Ki [1]	IC50 [3]	SMILES	IC50 [2]	IC50 [4]
0.14 nM	220 nM	Cc1nn(-c2ccnc(N)n2)c2cc(C#C[C@@](C)(O)c3nccs3)ccc12 (stereo in doubt) [Example T1-42, 4-(1-(2-aminopyrimidin-4-yl)-3-methyl-1H-indazol-6-yl)-2-(thiazol-2-yl)but-3-yn-2-ol]	14.2 nM	–
0.262 nM	129 nM	Cc1nn(-c2ccnc(N)n2)c2cc(C#CC(C)(O)c3nccs3)ccc12 (stereo not drawn) [Example T1-13, 4-(1-(2-aminopyrimidin-4-yl)-3-methyl-1H-indazol-6-yl)-2-(thiazol-2-yl)but-3-yn-2-ol]	23.1 nM	77 nM
61 nM	–	CC(O)(C#Cc1ccc2ncn(-c3ccnc(N)n3)c2c1)C(F)F (stereo not drawn) [Example T1-26, 4-(1-(2-aminopyrimidin-4-yl)-1H-benzo[d]imidazol-6-yl)-1,1-difluoro-2-methylbut-3-yn-2-ol]	1500 nM	313 nM
0.42 nM	313 nM	Cc1cc(C(C)(O)C#Cc2ccc3ncn(-c4ccnc(N)n4)c3c2)no1 (stereo not drawn) [Example T1-28, 4-(1-(2-aminopyrimidin-4-yl)-1H-benzo[d]imidazol-6-yl)-2-(5-methylisoxazol-3-yl) but-3-yn-2-ol]	–	–
1.3 nM	72.7 nM	CN(C)Cc1nn(-c2ccnc(N)n2)c2cc(C#CC(C)(O)c3ncco3)ccc12 (stereo not drawn) [Example T1-32, 4-(1-(2-aminopyrimidin-4-yl)-3-((dimethylamino)methyl)-1H-indazol-6-yl)-2-(oxazol-2-yl)but-3-yn-2-ol]	589 nM	–
0.25 nM	194 nM	CC(O)(C#Cc1cc2c(cc1F)ncn2-c1ccnc(N)n1)c1nccs1 (stereo not drawn) [Example T1-39, 4-(1-(2-aminopyrimidin-4-yl)-5-fluoro-1H-benzo[d]imidazol-6-yl)-2-(thiazol-2-yl)but-3-yn-2-ol]	31.1 nM	220 nM
3 nM	–	CC(C)(O)C#Cc1cc2c(cc1F)ncn2-c1ccnc(N)n1 [Example T1-40, 4-(1-(2-aminopyrimidin-4-yl)-5-fluoro-1H-benzo[d]imidazol-6-yl)-2-methylbut-3-yn-2-ol]	332 nM	346 nM
8.5 nM	6400 nM	Cc1cc(C(C)(O)C#Cc2ccc3ncn(-c4ccnc(N)n4)c3c2)on1 (stereo not drawn) [Example T1-41, 4-(1-(2-aminopyrimidin-4-yl)-1H-benzo[d]imidazol-6-yl)-2-(3-methylisoxazol-5-yl) but-3-yn-2-ol]	309 nM	–
